Reference: patent US8486921B2, “Synthesis of tetracyclines and analogues thereof” (President and Fellows of Harvard College, priority 2006, dated 2013)

Test system: Gram-positive strains
Assay: Whole-cell antibacterial MIC assay (NCCLS serial dilution), Gram-positive strains
Type: cell-based
Settings: each of the Gram-positive strains examined, including strains with resistance to tetracycline, methicillin, and vancomycin
Description: The efficiencies of the synthetic sequences have allowed for the preparation of sufficient quantities of each tetracycline analog for antibacterial testing using standard serial-dilution techniques (5-20 mg amounts). Minimum inhibitory concentrations (MICs) are reported for each analog in whole-cell antimicrobial assays using five Gram-positive and five Gram-negative organisms (FIG. 18).
Whole-cell antibacterial activity was determined according to methods recommended by the NCCLS-(National Committee for Clinical Laboratory Standards. 2002. Methods for dilution antimicrobial susceptibility tests for bacteria that grow aerobically: approved standard-fifth edition. NCCLS document M100-S12. National Committee for Clinical Laboratory Standards. Wayne, Pa.; incorporated herein by reference). Test compounds were dissolved in dimethyl sulfoxide (DMSO) and the resulting solutions were diluted in water (1:10) to produce stock solutions with a final concentration of 256 μg tetracycline analog per mL. In a 96-well microtiter plate, 50-μL aliquots of stock solutions were diluted serially into cation-adjusted Mueller-Hinton broth (MHB; Becton-Dickinson, Cockeysville, Md.). Test organisms (50 μL aliquots of solutions […]) were then added to the appropriate wells of the microtiter plate. […] The MIC was the lowest concentration of compound determined to inhibit visible growth. […]

SMILES: CN(C)[C@@H]1C(O)=C(C(N)=O)C(=O)[C@@]2(O)C(O)=C3C(=O)c4c(cc5ccccc5c4O)C[C@H]3C[C@@H]12 [compound 6]
- antibacterial activity (MIC) compared with tetracycline: activity equal to or greater than tetracycline
